Experimental data reported in patent publication US12077503B2, “Substituted cyclic amides and their use as herbicides” (FMC CORPORATION, priority 2015, dated 2024).

Tests used:
Type in all cases: in vivo
[1] = test system: Kochia (Kochia scoparia); test: Test A preemergence; settings: preemergence
Outline: (§1)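 Each rating is a visual injury score from 0 to 100 given about 10 d after treatment, judged against untreated controls kept alongside in the greenhouse. In loam soil–sand blend, seeds got a preemergence directed soil spray, while postemergence plants were 2 to 10 cm tall at spraying.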

[2] = test system: barnyardgrass (Echinochloa crus-galli); test: Test A preemergence; settings: preemergence
Outline: as §1

[3] = test system: giant foxtail (Setaria faberii); test: Test A preemergence; settings: preemergence
Outline: as §1

[4] = test system: pigweed (Amaranthus retroflexus); test: Test A preemergence; settings: preemergence
[5] = test system: ragweed (common ragweed, Ambrosia elatior); test: Test A preemergence; settings: preemergence
Outline: as §1

[6] = test system: ryegrass, Italian (Italian ryegrass, Lolium multiflorum); test: Test A preemergence; settings: preemergence
Outline: as §1

[7] = test system: Galium (catchweed bedstraw, Galium aparine); test: Test A postemergence; settings: postemergence, 0 to 100 scale (0 no effect, 100 complete control)
Outline: as §1

[8] = test system: Kochia (Kochia scoparia); test: Test A postemergence; settings: postemergence, 0 to 100 scale (0 no effect, 100 complete control)
Outline: as §1

[9] = test system: barnyardgrass (Echinochloa crus-galli); test: Test A postemergence; settings: postemergence, 0 to 100 scale (0 no effect, 100 complete control)
Outline: as §1

[10] = test system: blackgrass (Alopecurus myosuroides); test: Test A postemergence; settings: postemergence, 0 to 100 scale (0 no effect, 100 complete control)
Outline: as §1

[11] = test system: corn (Zea mays); test: Test A postemergence; settings: postemergence, 0 to 100 scale (0 no effect, 100 complete control)
Outline: as §1

[12] = test system: giant foxtail (Setaria faberii); test: Test A postemergence; settings: postemergence, 0 to 100 scale (0 no effect, 100 complete control)
Outline: as §1

[13] = test system: pigweed (Amaranthus retroflexus); test: Test A postemergence; settings: postemergence, 0 to 100 scale (0 no effect, 100 complete control)
Outline: as §1

[14] = test system: ragweed (common ragweed, Ambrosia elatior); test: Test A postemergence; settings: postemergence, 0 to 100 scale (0 no effect, 100 complete control)
Outline: as §1

[15] = test system: ryegrass, Italian (Italian ryegrass, Lolium multiflorum); test: Test A postemergence; settings: postemergence, 0 to 100 scale (0 no effect, 100 complete control)
Outline: as §1

[16] = test system: wheat (Triticum aestivum); test: Test A postemergence; settings: postemergence, 0 to 100 scale (0 no effect, 100 complete control)
Outline: as §1

[17] = test system: barnyardgrass (Echinochloa crus-galli); test: Test B flooded paddy test; settings: Flood, 500 g ai/ha; 0 to 100 scale where 0 is no effect and 100 is complete control; 13 to 15 d
Outline: (§2)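 Rating scale 0–100 (visual, vs untreated controls) after a 13–15 d greenhouse period; application to the flood layer, 3 cm above soil and maintained; plants at 2-leaf stage when treated.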

[18] = test system: ducksalad (Heteranthera limosa); test: Test B flooded paddy test; settings: Flood, 500 g ai/ha; 0 to 100 scale where 0 is no effect and 100 is complete control; 13 to 15 d
Outline: as §2

[19] = test system: rice (Oryra sativa); test: Test B flooded paddy test; settings: Flood, 500 g ai/ha; 0 to 100 scale where 0 is no effect and 100 is complete control; 13 to 15 d
Outline: as §2

[20] = test system: sedge, umbrella (small-flower umbrella sedge, Cyperus difformis); test: Test B flooded paddy test; settings: Flood, 500 g ai/ha; 0 to 100 scale where 0 is no effect and 100 is complete control; 13 to 15 d
Outline: as §2

[21] = test system: lambsquarters (Chenopodium album); test: Test C preemergence; settings: for Plant response rating (scale of 0 to 100), Lambsquarters: 31 g ai/ha, 0 is no effect, 100 is complete control; for Plant response rating, Lambsquarters: scale 0 to 100, 0 no effect, 100 complete control
Description: Seeds of plant species selected from blackgrass (Alopecurus myosuroides), ryegrass, Italian (Italian ryegrass, Lolium multiflorum), wheat (winter wheat, Triticum aestivum), Galium (catchweed bedstraw, Galium aparine), corn (Zea mays), crabgrass, large (large crabgrass, Digitaria sanguinalis), foxtail, giant (giant foxtail, Setaria faberii), johnsongrass (Sorghum halepense), lambsquarters (Chenopodium album), morningglory (Ipomoea coccinea), nutsedge, yellow (yellow nutsedge, Cyperus esculentus), pigweed (Amaranthus retroflexus), ragweed (common ragweed, Ambrosia elatior), soybean (Glycine max), barnyardgrass (Echinochloa crus-galli), oilseed rape (Brassica napus), waterhemp (common waterhemp, Amaranthus rudis) and velvetleaf (Abutilon theophrasti) were planted into a blend of loam soil and sand and treated preemergence with test chemicals formulated in a non-phytotoxic solvent mixture which included a surfactant.
At the same time, plants selected from these crop and weed species and also Kochia (Kochia scoparia), oat, wild (wild oat, Avena fatua), and chickweed (common chickweed, Stellaria media) were planted in pots containing Sunshine Redi-Earth® planting medium comprising spaghnum peat moss, vermiculite, starter nutrients and dolomitic limestone and treated with postemergence applications of test chemicals formulated in the same manner. Plants ranged in height from 2 to 18 cm (1- to 4-leaf stage) for postemergence treatments. Treated plants and controls were maintained in a greenhouse for 13 to 15 d, after which time all species were compared to controls and visually evaluated. Plant response ratings, summarized in Table C, are based on a scale of 0 to 100 where 0 is no effect and 100 is complete control. A dash (-) response means no test result.

[22] = 125 g ai/ha, visual rating after approx. 10 d, 0 to 100 scale where 0 is no effect and 100 is complete control
[23] = 500 g ai/ha, 0 to 100 scale, 0 = no effect, 100 = complete control
[24] = 125 g ai/ha, visual injury after approximately 10 d
[25] = 500 g ai/ha, visual injury, approx. 10 d

| Structure (SMILES) | Plant response rating, Kochia [1, 22] | Plant response rating, Kochia [1, 23] | Plant response rating, Barnyardgrass [2, 22] | Plant response rating, Barnyardgrass [2, 23] | Plant response rating, Foxtail, Giant [3, 22] | Plant response rating, Foxtail, Giant [3, 23] | Plant response rating, Pigweed [4, 22] | Plant response rating, Pigweed [4, 23] | Plant response rating, Ragweed [5, 22] | Plant response rating, Ragweed [5, 23] | Plant response rating, Ryegrass, Italian [6, 22] | Plant response rating, Ryegrass, Italian [6, 23] | Plant response rating, Galium [7, 24] | Plant response rating, Galium [7, 25] | Plant response rating, Kochia [8, 24] | Plant response rating, Kochia [8, 25] | Plant response rating, Barnyardgrass [9, 24] | Plant response rating, Barnyardgrass [9, 25] | Plant response rating, Blackgrass [10, 24] | Plant response rating, Blackgrass [10, 25] | further results |
| --- | --- | --- | --- | --- | --- | --- | --- | --- | --- | --- | --- | --- | --- | --- | --- | --- | --- | --- | --- | --- | --- |
| O=C1NCC(c2cccc(OC(F)(F)C(F)F)c2)C1C(=O)Nc1cccc(F)c1F (racemic) [Compound 697] | 30 | 80 | 90 | 90 | 90 | 90 | 50 | 50 | 50 | 60 | 40 | 50 | 50 | 50 | 60 | 60 | 80 | 90 | 30 | 40 | Plant response rating, Corn [11, 24]: 70; Plant response rating, Corn [11, 25]: 80; Plant response rating, Foxtail, Giant [12, 24]: 80; Plant response rating, Foxtail, Giant [12, 25]: 80; Plant response rating, Pigweed [13, 24]: 50; Plant response rating, Pigweed [13, 25]: 50; Plant response rating, Ragweed [14, 24]: 30; Plant response rating, Ragweed [14, 25]: 50; Plant response rating, Ryegrass, Italian [15, 24]: 20; Plant response rating, Ryegrass, Italian [15, 25]: 30; Plant response rating, Wheat [16, 24]: 20; Plant response rating, Wheat [16, 25]: 40; Plant response rating, Barnyardgrass [17]: 90; Plant response rating, Ducksalad [18]: 90; Plant response rating, Rice [19]: 0; Plant response rating, Sedge, Umbrella [20]: 0; Plant response rating (scale of 0 to 100), Lambsquarters [21]: 35; Plant response rating, Lambsquarters ([21]; 62 g ai/ha): 40; Plant response rating, Lambsquarters ([21]; 125 g ai/ha): 65; Plant response rating, Lambsquarters ([21]; 250 g ai/ha): 60 |
| O=C1NCC(c2cccc(OC(F)(F)C(F)F)c2)C1C(=O)Nc1ccc(F)c(F)c1F (racemic) [Compound 698] | 50 | 40 | 80 | 90 | 90 | 90 | 50 | 50 | 0 | 50 | 30 | 60 | 50 | 50 | 50 | 60 | 70 | 80 | 30 | 40 | Plant response rating, Corn [11, 24]: 80; Plant response rating, Corn [11, 25]: 80; Plant response rating, Foxtail, Giant [12, 24]: 80; Plant response rating, Foxtail, Giant [12, 25]: 80; Plant response rating, Pigweed [13, 24]: 40; Plant response rating, Pigweed [13, 25]: 60; Plant response rating, Ragweed [14, 24]: 20; Plant response rating, Ragweed [14, 25]: 40; Plant response rating, Ryegrass, Italian [15, 24]: 30; Plant response rating, Ryegrass, Italian [15, 25]: 30; Plant response rating, Wheat [16, 24]: 30; Plant response rating, Wheat [16, 25]: 40; Plant response rating, Barnyardgrass [17]: 50; Plant response rating, Ducksalad [18]: 90; Plant response rating, Rice [19]: 0; Plant response rating, Sedge, Umbrella [20]: 0; Plant response rating (scale of 0 to 100), Lambsquarters [21]: 10; Plant response rating, Lambsquarters ([21]; 62 g ai/ha): 35; Plant response rating, Lambsquarters ([21]; 125 g ai/ha): 70; Plant response rating, Lambsquarters ([21]; 250 g ai/ha): 80 |
| O=C1NCC(c2ccc(I)cc2)C1C(=O)Nc1cccc(F)c1F (racemic) [Compound 700] | 30 | 70 | 90 | 90 | 90 | 90 | 40 | 60 | 0 | 60 | 0 | 30 | 40 | 60 | 30 | 60 | 70 | 70 | 0 | 50 | Plant response rating, Corn [11, 24]: 0; Plant response rating, Corn [11, 25]: 70; Plant response rating, Foxtail, Giant [12, 24]: 70; Plant response rating, Foxtail, Giant [12, 25]: 90; Plant response rating, Pigweed [13, 24]: 0; Plant response rating, Pigweed [13, 25]: 30; Plant response rating, Ragweed [14, 24]: 20; Plant response rating, Ragweed [14, 25]: 30; Plant response rating, Ryegrass, Italian [15, 24]: 30; Plant response rating, Ryegrass, Italian [15, 25]: 40; Plant response rating, Wheat [16, 24]: 0; Plant response rating, Wheat [16, 25]: 60; Plant response rating, Barnyardgrass [17]: 85; Plant response rating, Ducksalad [18]: 100; Plant response rating, Rice [19]: 0; Plant response rating, Sedge, Umbrella [20]: 0; Plant response rating (scale of 0 to 100), Lambsquarters [21]: 0; Plant response rating, Lambsquarters ([21]; 62 g ai/ha): 25; Plant response rating, Lambsquarters ([21]; 125 g ai/ha): 80; Plant response rating, Lambsquarters ([21]; 250 g ai/ha): 85 |
